Experimental data taken from patent US20230159486A1, “SUBSTITUTED THIOPHENECARBOXAMIDES AND ANALOGUES AS ANTIBACTERIALS AGENTS” (Bayer Aktiengesellschaft, priority 2018, published 2023).
Structures can show the parent of a compound that is named as a salt. Marks after values point to notes of the source that are not given here.

What was measured:
[1] = system: Xanthomonas campestris pv. campestris; assay: In vivo preventive test on Xanthomonas campestris pv. campestris (black rot on cabbage); settings: comparative Example C, same conditions as described in Example B; concentration not given
Description: The tested compounds were prepared by homogenization in a mixture of acetone/Dimethyl sulfoxide/Tween®, and then diluted with water to obtain the desired concentration.
The young plants of cabbage were treated by spraying the compound prepared as described above. Control plants were treated only with an aqueous solution of acetone/Dimethyl sulfoxide/Tween®.
After 72 hours, the plants were contaminated by spraying the leaves with an aqueous bacteria suspension of Xanthomonas campestris pv. campestris. The contaminated cabbage plants were incubated for 8 or 10 days at 27° C. at 95% relative humidity.
The test was evaluated 8 or 10 days after the inoculation. 0% means an efficacy which corresponds to that of the control plants while an efficacy of 100% means that no disease was observed.
Compounds CMP1 and CMP2 were tested in an in vivo preventive test on Xanthomonas campestris pv. campestris (black rot on cabbage) in the same conditions as described in Example B.
Compounds CMP1 and CMP2 were prepared in accordance with the teaching of U.S. Pat. No. 5,534,541.

[2] = Log P by HPLC on reversed phase columns (EEC directive 79/831 Annex V.A8); assay type: physicochemical
Description: In the above tables, measurement of Log P values was performed according to EEC directive 79/831 Annex V.A8 by HPLC (High Performance Liquid Chromatography) on reversed phase columns with the following methods: • ^[a]
If more than one Log P value is available within the same method, all the values are given and separated by “+”.
Calibration was done with straight-chain alkan2-ones (with 3 to 16 carbon atoms) with known Log P values (measurement of Log P values using retention times with linear interpolation between successive alkanones). Lambda-max-values were determined using UV-spectra from 200 nm to 400 nm and the peak values of the chromatographic signals.

[3] = system: Xanthomonas campestris pv. campestris; assay: Xanthomonas campestris pv. campestris in vitro cell test (bacteria growth in liquid culture); assay type: cell-based; settings: 20 ppm of tested compound, 24 h of incubation
Description: Culture medium: LB broth medium (Luria Broth Miller) Sigma
Inoculum: bacteria suspension
Compounds to be tested were solubilized in DMSO and the solution used to prepare the required range of concentrations. The final concentration of DMSO used in the assay was ≤1%.
Inoculum was prepared from a pre-culture of bacteria grown in liquid medium and diluted to the desired optical density (OD).
Compounds were evaluated for their ability to inhibit bacteria growth in liquid culture assay. The compounds were added in the desired concentrations to culture medium containing the bacteria suspension. After 24 h of incubation, the efficacy of compounds was determined by spectrometric measurement of bacteria growth. Inhibition was determined by comparing the absorbance values in wells containing the compounds with the absorbance in control wells without compounds.

[4] = system: salicylate responsive promoter sequence of the PR1 (pathogenesis-related protein 1) gene (AT2G14610); assay: Induction of defense gene expression in Arabidopsis thaliana (PR1 promoter-GFP reporter plants); assay type: in vivo; settings: 300 ppm, 3rd day after spraying; mock treated leaves set as 1.00
Description: Arabidopsis thaliana reporter plants containing the coding sequence of a green fluorescent protein (GFP) linked to the salicylate responsive promoter sequence of the PR1 (pathogenesis-related protein 1) gene (AT2G14610) were grown for five days and then sprayed with compounds. On the 3rd day after spraying, plant fluorescence was assessed with a MacroFluo instrument from Leica Microsystems (Wetzlar, Germany). Fluorescences were quantified with the Meta-Morph Microscopy Automation & Image Analysis Software (Molecular Devices, Sunnyvale, Calif., United States). Background fluorescence in mock treated leaves was set as 1.00.

[5] = reversed phase HPLC columns, method [a]: LC-UV, acidic range, 0.1% formic acid in water and acetonitrile
[6] = reversed phase HPLC columns, value of the preparation example, method not marked

| SMILES | LogP [2] | direct activity (inhibition of bacteria growth) [3] | further results |
| --- | --- | --- | --- |
| C=CC1CC1(NC(=O)c1sc(Cl)c(Cl)c1Cl)C(=O)OC (mixture of isomers) [II.36] | 3.68^[a] | no direct activity | Efficacy (%) [1]: >90% |
| CCOC(=O)C(CC(C)C)NC(=O)c1sc(Cl)c(Cl)c1Cl (racemic) [II.04] | 5.22^[a] | no direct activity |  |
| COC(=O)C(NC(=O)c1sc(Cl)c(Cl)c1Cl)C1CC1 (racemic) [II.06] | 3.81^[a] | no direct activity | Efficacy (%) [1]: >90% |
| CCOC(=O)C(Cc1ccc(O)cc1)NC(=O)c1sc(Cl)c(Cl)c1Cl (racemic) [II.15] | 3.63^[a] | no direct activity |  |
| CCOC(=O)C(Cc1ccccc1)NC(=O)c1sc(Cl)c(Cl)c1Cl (racemic) [II.26] | 5.04^[a] |  |  |
| CC(C)CC(NC(=O)c1sc(Cl)c(Cl)c1Cl)C(=O)O (racemic) [II.31] | 3.62^[a] |  |  |
| O=C(NC(Cc1ccccc1)C(=O)O)c1sc(Cl)c(Cl)c1Cl (racemic) [II.32] | 3.56^[a] |  |  |
| O=C(NC(C(=O)O)C1CC1)c1sc(Cl)c(Cl)c1Cl (racemic) [II.33] | 2.83^[a] |  |  |
| CCOC(=O)C(Cc1ccccc1)NC(=O)c1scc(Cl)c1Cl (racemic) [XVIa.02] | 3.99^[a] |  |  |
| COC(=O)C(NC(=O)c1cc(Cl)c(Cl)s1)C1CC1 (racemic) [XVIc.03] | 2.98^[a] |  |  |
| O=C(NC(C(=O)O)C1CC1)c1cc(Cl)c(Cl)s1 (racemic) [XVIc.05] | 2.33^[a] |  |  |
| COC(=O)CNC(=O)c1sc(Br)c(Br)c1Br [CMP1, reference compound] |  |  | Efficacy (%) [1]: 27% |
| COC(=O)C(NC(=O)c1sc(Cl)c(Cl)c1Cl)C(C)C (centres unmarked) [CMP2, reference compound] |  |  | Efficacy (%) [1]: 0% |
| COC(=O)CNC(=O)c1sc(Cl)c(Cl)c1Cl [II.01, methyl N-[(3,4,5-trichloro-2-thienyl)carbonyl]glycinate] |  | no direct activity | Efficacy (%) [1]: >90%; chromatographic logP [2, 5]: 2.83; chromatographic logP [2, 6]: 2.8 |
| CCOC(=O)C1(NC(=O)c2sc(Cl)c(Cl)c2Cl)CC1 [II.02, ethyl 1-{[(3,4,5-trichloro-2-thienyl)carbonyl]amino}cyclopropanecarboxylate] |  | no direct activity | chromatographic logP [2, 5]: 3.41; chromatographic logP [2, 6]: 3.4 |
| O=C(NC1(C(=O)O)CC1)c1sc(Cl)c(Cl)c1Cl [II.03] |  | no direct activity |  |
| O=C(O)CNC(=O)c1sc(Cl)c(Cl)c1Cl [II.05, N-[(3,4,5-trichloro-2-thienyl)carbonyl]glycine] |  |  | chromatographic logP [2, 5]: 2.16; chromatographic logP [2, 6]: 2.14 |
| O=C(CNC(=O)c1sc(Cl)c(Cl)c1Cl)OCC(F)(F)F [II.07] | 3.60^[a] | no direct activity |  |
| O=C(CNC(=O)c1sc(Cl)c(Cl)c1Cl)Oc1ccccc1 [II.08] | 3.87^[a] | no direct activity |  |
| CC(C)OC(=O)CNC(=O)c1sc(Cl)c(Cl)c1Cl [II.09] | 3.67^[a] | no direct activity |  |
| CCCOC(=O)CNC(=O)c1sc(Cl)c(Cl)c1Cl [II.10] | 3.70^[a] | no direct activity |  |
| CCCCOC(=O)CNC(=O)c1sc(Cl)c(Cl)c1Cl [II.11] | 4.18^[a] | no direct activity |  |
| O=C(CNC(=O)c1sc(Cl)c(Cl)c1Cl)OC1CC1 [II.12] | 3.33^[a] | no direct activity |  |

| SMILES | LogP [2] | direct activity (inhibition of bacteria growth) [3] | further results |
| --- | --- | --- | --- |
| O=C(CNC(=O)c1sc(Cl)c(Cl)c1Cl)OCc1ccccc1 [II.13] |  | no direct activity |  |
| CC[C@H](C)[C@H](NC(=O)c1sc(Cl)c(Cl)c1Cl)C(=O)OC [II.14] | 4.82^[a] | no direct activity | Efficacy (%) [1]: >90% |
| O=C(CNC(=O)c1sc(Cl)c(Cl)c1Cl)OC1CCC1 [II.16] | 3.87^[a] | no direct activity |  |
| CC/C=C\CCOC(=O)CNC(=O)c1sc(Cl)c(Cl)c1Cl [II.17] | 4.69^[a] | no direct activity |  |
| O=C(CNC(=O)c1sc(Cl)c(Cl)c1Cl)OCC1CC1 [II.18] | 3.81^[a] | no direct activity |  |
| CC(C)COC(=O)CNC(=O)c1sc(Cl)c(Cl)c1Cl [II.19] | 4.13^[a] | no direct activity |  |
| C#CCOC(=O)CNC(=O)c1sc(Cl)c(Cl)c1Cl [II.20] | 3.13^[a] | no direct activity |  |
| N#CCOC(=O)CNC(=O)c1sc(Cl)c(Cl)c1Cl [II.21] | 2.84^[a] | no direct activity |  |
| C=CCOC(=O)CNC(=O)c1sc(Cl)c(Cl)c1Cl [II.22] | 3.64^[a] | no direct activity |  |
| C[Si](C)(C)COC(=O)CNC(=O)c1sc(Cl)c(Cl)c1Cl [II.23] | 4.81^[a] | no direct activity |  |
| CC(C)(C)OC(=O)CNC(=O)c1sc(Cl)c(Cl)c1Cl [II.24] | 4.27^[b] | no direct activity |  |
| CCOC(=O)[C@H](Cc1ccccc1)NC(=O)c1sc(Cl)c(Cl)c1Cl [II.25] | 5.00^[a] |  |  |
| CCOC(=O)[C@@H](CC(C)C)NC(=O)c1sc(Cl)c(Cl)c1Cl [II.27] | 5.20^[a] |  |  |
| CCOC(=O)[C@H](CC(C)C)NC(=O)c1sc(Cl)c(Cl)c1Cl [II.28] | 5.16^[a] |  |  |
| CC[C@H](C)[C@H](NC(=O)c1sc(Cl)c(Cl)c1Cl)C(=O)O [II.30] | 3.69^[a] |  |  |
| CCOC(=O)CN(C)C(=O)c1sc(Cl)c(Cl)c1Cl [II.35] | 3.21^[a] | no direct activity |  |
| CCOC(=O)[C@@H](Cc1ccccc1)NC(=O)c1sc(Cl)c(Cl)c1Cl [II.37] | 5.00^[a] |  |  |
| O=C(O)c1ccccc1O [Salicylic acid] |  |  | relative fluorescence value [4]: 2.70 |
| Nc1c(C(=O)O)sc(Cl)c1Cl [XIXc.01, 3-amino-4,5-dichlorothiophene-2-carboxylic acid hydrochloride (1:1)] |  |  | chromatographic logP ([2]; method [a]: LC-UV, acidic range, 0.1% formic acid in water and acetonitrile): 2.05 |
| CCOC(=O)C1(NC(=O)c2sc(Cl)c(Cl)c2N)CC1 [XVIIc.01, ethyl 1-{[(3-amino-4,5-dichloro-2-thienyl)carbonyl]amino}cyclopropanecarboxylate] |  |  | chromatographic logP [2, 5]: 2.77; chromatographic logP [2, 6]: 2.77 |
| CCOC(=O)CNC(=O)c1scc(Cl)c1Cl [XVIa.01] | 2.40^[a] |  |  |
| CCOC(=O)C1(NC(=O)c2scc(Cl)c2Cl)CC1 [XVIa.03] | 2.59^[a] |  |  |
| COC(=O)C1(NC(=O)c2cc(Cl)c(Cl)s2)CC1 [XVIc.01] | 2.49^[a] |  |  |
